ChEMBL document CHEMBL1158009, “Paclitaxel analogues from Taxus x media cv. Hicksii” (1999)

How the values were obtained:
MCF7 = experiment: Cytotoxicity against human MCF7 cells assessed as ratio of ED50 for drug to ED50 for paclitaxel; type: functional
MCF7R = experiment: Cytotoxicity against human MCF7R cells assessed as ratio of ED50 for drug to ED50 for paclitaxel; type: functional
Tubulin = experiment: Inhibition of microtubule assembly = assessed as ratio of ED50 for drug to ED50 for paclitaxel

Row | SMILES | Ratio ED50 (MCF7) | Ratio ED50 (MCF7R) | Ratio ED50 (Tubulin)
1 | CC(=O)O[C@H]1C(=O)[C@@]2(C)[C@H]([C@H](OC(=O)c3ccccc3)[C@]3(O)C[C@H](OC(=O)[C@H](O)[C@H](NC(=O)/C=C/c4ccccc4)c4ccccc4)C(C)=C1C3(C)C)[C@]1(OC(C)=O)CO[C@@H]1C[C@@H]2O | 1.3 | 1.2 | 1.2
2 | CCC(C)C(=O)N[C@H](c1ccccc1)[C@@H](O)C(=O)O[C@H]1C[C@@]2(O)[C@@H](OC(=O)c3ccccc3)[C@@H]3[C@]4(OC(C)=O)CO[C@@H]4C[C@H](O)[C@@]3(C)C(=O)[C@H](OC(C)=O)C(=C1C)C2(C)C (some centres not stated) | >10 | – | 6.7
3 | C/C=C(\C)C(=O)O[C@H]1[C@@H]2[C@]3(OC(C)=O)CO[C@@H]3C[C@H](O)[C@@]2(C)C(=O)[C@H](OC(C)=O)C2=C(C)[C@@H](OC(=O)[C@H](O)[C@H](NC(=O)c3ccccc3)c3ccccc3)C[C@]1(O)C2(C)C [ISOCEPHALOMANNINE] | 12 | – | 1.1
